According to patent publication US20220389008A1, “4-QUINOLINONE ANTIBACTERIAL COMPOUNDS” (Janssen Sciences Ireland Unlimited Company, priority 2019, published 2022):
Read-outs that look alike come from different tables or passages of the source.

Assays:
[1] = system: Mycobacterium tuberculosis (strain H37Ra), cyt bd; details: Mtb H37Ra; for (i) % OCR after cyt bd inhibitor: test compound 10 μM added after Compound X 0.9 μM; for (ii) % OCR after cccp: test compound 10 μM after Compound X 0.9 μM, then CCCP 1 μM
[2] = system: Mitochondrial toxicity (Glu/Gal); assay: Mitochondrial toxicity (Glu/Gal) assay; assay type: cell-based; set-up: key to Score: “negative” means that in the test, it was found to have low mitotoxicity (and hence no mitotoxicity alerts); “positive” means that there were some mitotoxicity alerts; “inconclusive” means that no accurate conclusion could be drawn; details: for Score: mitotoxicity score; for Δ IC50,glu/IC50,gal: ratio glu/gal
Description: The compounds of the invention/examples may have advantages associated with in vitro potency, kill kinetics (i.e. bactericidal effect) in vitro, PK properties, food effect, safety/toxicity (including liver toxicity, coagulation, 5-LO oxygenase), metabolic stability, Ames II negativity, MNT negativity, aqueous based solubility (and ability to formulate) and/or cardiovascular effect e.g. on animals (e.g. anesthetized guinea pig). The data below that was generated/calculated may be obtained using standard methods/assays, for instance that are available in the literature or which may be performed by a supplier (e.g. Microsomal Stability Assay—Cyprotex, Mitochondrial toxicity (Glu/Gal) assay—Cyprotex, as well as literature CYP cocktail inhibition assays).

[3] = system: Mycobacterium tuberculosis strain H37Rv ΔctaE-ΔqcrCAB; assay: microbe, parasite or virus in culture; assay type: cell-based; details: 240 h
[4] = galactose medium, read-out: IC50, gal
[5] = glucose medium, read-out: IC50, glu

Row | SMILES | (i) % OCR after cyt bd inhibitor [1] | (ii) % OCR after cccp [1] | IC50 [2, 4] [µM] | IC50 [2, 5] [µM] | Score [2] | Δ IC50,glu/IC50,gal [2] | IC50 [3] [µM]
1 | Cc1c(-c2nc3cc(C(F)(F)F)c(Br)cn3n2)[nH]c2ccccc2c1=O [Compound 46] | 91.4% | 140.4% | 100 | 100 | negative | [x]0 | > 50
2 | Cc1c(-c2nc3ccc(-c4cc(C(F)(F)F)nn4C)cn3n2)[nH]c2ccccc2c1=O [Compound 15] | 91.58% | 94.75% | 200 | 44.3 | negative | [x]0.22 | 57
3 | CNC(=O)c1c(-c2nc3ccc(-c4nc(C(F)(F)F)cs4)cn3n2)[nH]c2ccccc2c1=O [Compound 27] | 111.36% | 117.59% | 100 | 100 | negative | [x]0 | > 50
4 | Cc1c(-c2nc3cc(C(F)(F)F)c(-c4ccccc4)cn3n2)[nH]c2ccccc2c1=O [Compound 21] | 81.6% | 103.4% | 50 | 50 | negative | [x]0 | 11.4
5 | Cc1cc(F)cc(-c2ccc3nc(-c4[nH]c5ccccc5c(=O)c4C)nn3c2)c1 [Compound 86] | 32,57% | 39,44% | 50 | 50 | negative | [x]0 | 1.32
6 | COc1ccc2[nH]c(-c3nc4ccc(-c5ccc(OC(F)(F)F)cc5)cn4n3)c(C)c(=O)c2c1 [Compound 43] | 109.2% | 138% | 10.6 | 26.3 | inconclusive | [x]2.48 | > 100
7 | COc1ccc2[nH]c(-c3nc4ccc(Br)cn4n3)c(C)c(=O)c2c1 [Compound 68] | 129.7% | 164.4% | 100 | 100 | negative | [x]0 | > 100
8 | Cc1c(-c2nc3ccc(N4CCN(CC(F)(F)F)CC4)cn3n2)[nH]c2ccccc2c1=O [Compound 16] | 80.34% | 95.29% | 200 | 200 | negative | [x]0 | 1.17
9 | Cc1c(-c2nc3ccc(-c4cc(F)cc(C(F)(F)F)c4)cn3n2)[nH]c2ccccc2c1=O [Compound 126] | 43,71% | 51,74% | 15.5 | 25 | inconclusive | [x]1.61 | 10.8
10 | Cc1c(-c2nc3ccc(OCC(F)(F)F)cn3n2)[nH]c2ccccc2c1=O [Compound 77] | 110.77% | 175.26% | 200 | 200 | negative | [x]0 | 1.85
11 | Cc1c(-c2nc3ccc(Cl)cn3n2)[nH]c2ccccc2c1=O [Compound 74] | 86.4% | 173.3% | 121 | 135 | negative | [x]l.ll | > 100
12 | COc1cc(OC)cc(-c2ccc3nc(-c4[nH]c5ccccc5c(=O)c4C)nn3c2)c1 [Compound 87] | 33,23% | 38,98% | 5.16 | 6.2 | inconclusive | [x]1.21 | 0.548
13 | Cc1cc(-c2ccc3nc(-c4[nH]c5ccccc5c(=O)c4C)nn3c2)ccc1F [Compound 110] | 40,37% | 51,51% | 200 | 200 | negative | [x]0 | 3.78
14 | CN(C)C(=O)c1c(-c2nc3ccc(-c4ccc(OC(F)(F)F)cc4)cn3n2)[nH]c2ccccc2c1=O [Compound 31] | 68.97% | 120.39% | 76 | 200 | inconclusive | [x]2.63 | > 50
15 | Cc1c(-c2nc3ccc(-c4ccccc4)cn3n2)[nH]c2ccccc2c1=O [Compound 72] | 99.84% | 169.69% | 100 | 100 | negative | [x]0 | 0.261
16 | Cc1c(-c2nc3ccc(-c4c[nH]nn4)cn3n2)[nH]c2ccccc2c1=O [Compound 60] | 114.505% | 155.065% | 100 | 100 | negative | [x]0 | > 50
17 | Cc1c(-c2nc3ccc(-c4cnn(CC(F)(F)F)c4)cn3n2)[nH]c2ccccc2c1=O [Compound 81] | 98.58% | 182.7% | 200 | 200 | negative | [x]0 | 16.7
18 | Cc1ccc(-c2ccc3nc(-c4[nH]c5ccccc5c(=O)c4C)nn3c2)cc1F [Compound 124] | 31,72% | 37,02% | 200 | 200 | negative | [x]0 | 1.69
19 | O=c1c(Br)c(-c2nc3ccc(-c4ccc(OC(F)(F)F)cc4)cn3n2)[nH]c2ccccc12 [Compound 41] | 84.09% | 137.15% | 54.7 | 53.9 | negative | [x]0.99 | 33.9
20 | O=c1cc(-c2nc3ccc(-c4ccc(OC(F)(F)F)cc4)cn3n2)[nH]c2ccccc12 [Compound 65] | 99.86% | 158.97% | 20 | 20 | negative | [x]0 | > 10
21 | COc1cc2[nH]c(-c3nc4ccc(Br)cn4n3)c(C)c(=O)c2cc1OC [Compound 73] | 105.2% | 171.2% | 100 | 100 | negative | [x]0 | > 100
22 | Cc1c(Cc2nc3ccc(-c4ccc(OC(F)(F)F)cc4)cn3n2)[nH]c2ccccc2c1=O [Compound 67] | 99.28% | 161.97% | 0.39 | 30 | positive | [x]76.87 | 10.3
